Measured values: publication PMC3070406 (The Pediatric infectious disease journal, 2011)
“And” between values parts separate entries of the source, which are not always exact repeats. Equal entries are not always repeated.

How the values were obtained:
[1] = test system: NA of influenza A and B virus isolates; assay type: biochemical, influenza A and B viruses
influenza infection = test system: influenza infection; parameters: species or system human; conditions: in vivo, po

In the case of CC(=O)N[C@H]1[C@H]([C@H](O)[C@H](O)CO)OC(C(=O)O)=C[C@@H]1N=C(N)N [zanamivir], the Susceptibility to zanamivir [1] is reported as “susceptible”.
With CCOC(=O)C1=C[C@@H](OC(CC)CC)[C@H](NC(C)=O)[C@@H](N)C1 [oseltamivir] the “duration of symptoms after commencing antiviral treatment (mean)” value (influenza infection) was 33.0 ± 8.3 days and 26 ± 17.9 days.
